Results as given in the supplement of paper PMC10307832.

Assays:
Test in all cases: relative viability (nuclei count vs DMSO), 5 days (fraction); higher = more cells survive
AZD5582 + Palbociclib = compound: C[C@@H](C(=O)N[C@@H](C1CCCCC1)C(=O)N2CCC[C@H]2C(=O)N[C@@H]3[C@@H](CC4=CC=CC=C34)OCC#CC#CCO[C@@H]5CC6=CC=CC=C6[C@@H]5NC(=O)[C@@H]7CCCN7C(=O)[C@H](C8CCCCC8)NC(=O)[C@H](C)NC)NC [AZD5582] + CC(=O)c1c(C)c2cnc(Nc3ccc(N4CCNCC4)cn3)nc2n(C2CCCC2)c1=O [Palbociclib] (partner 0.5 µM)
Outline: (§1)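 Nuclei were stained with Hoechst during a one-step fixation (final 0.05% Triton X-100, 1% formaldehyde, 1 ug/ml Hoechst) carried out 5 days after dosing, then counted on 4× images. The cells, lung cancer lines in 1536-well plates, had been dosed by pin tool the day after seeding with one drug alone or a fixed anchor-drug dose plus five library-drug doses (not always all listed) in √10 steps. Relative viability is the nuclei count in treated wells divided by that in vehicle wells, and each value is the median of duplicate plates.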

[1] = compound: Cn1nnc2c(C(N)=O)ncn2c1=O [Temozolomide] + CC(=O)Nc1cccc(-n2c(=O)n(C3CC3)c(=O)c3c(Nc4ccc(I)cc4F)n(C)c(=O)c(C)c32)c1 [Trametinib] (partner 0.02 µM)
Outline: as §1

[2] = compound: Cn1nnc2c(C(N)=O)ncn2c1=O [Temozolomide] + CC(=O)c1c(C)c2cnc(Nc3ccc(N4CCNCC4)cn3)nc2n(C2CCCC2)c1=O [Palbociclib] (partner 0.5 µM)
Outline: as §1

[3] = compound: Cn1nnc2c(C(N)=O)ncn2c1=O [Temozolomide] + CS(=O)(=O)N1CCN(Cc2cc3nc(-c4cccc5[nH]ncc45)nc(N4CCOCC4)c3s2)CC1 [Pictilisib] (partner 1 µM)
Outline: as §1

Row | Cell Line | relative viability (AZD5582 + Palbociclib; first compound 0.001581 µM) | relative viability (AZD5582 + Palbociclib; first compound 0.005 µM) | relative viability (AZD5582 + Palbociclib; first compound 0.01581 µM) | relative viability (AZD5582 + Palbociclib; first compound 0.05 µM) | relative viability ([1]; first compound 0.2 µM) | relative viability ([1]; first compound 0.6325 µM) | relative viability ([1]; first compound 2 µM) | relative viability ([1]; first compound 6.325 µM) | relative viability ([1]; first compound 20 µM) | relative viability ([2]; first compound 0.2 µM) | relative viability ([2]; first compound 0.6325 µM) | relative viability ([2]; first compound 2 µM) | relative viability ([2]; first compound 6.325 µM) | relative viability ([2]; first compound 20 µM) | relative viability ([3]; first compound 0.2 µM) | relative viability ([3]; first compound 0.6325 µM) | relative viability ([3]; first compound 2 µM) | relative viability ([3]; first compound 6.325 µM) | relative viability ([3]; first compound 20 µM)
1 | NCI-H1650 | 0.37 | 0.43 | 0.334 | 0.328 | 0.618 | 0.654 | 0.611 | 0.642 | 0.39 | 0.339 | 0.406 | 0.362 | 0.355 | 0.28 | 0.661 | 0.611 | 0.55 | 0.579 | 0.478
2 | NCI-H1651 | 0.489 | 0.52 | 0.492 | 0.608 | 0.677 | 0.834 | 0.818 | 0.77 | 0.84 | 0.497 | 0.557 | 0.5 | 0.526 | 0.547 | 0.567 | 0.681 | 0.654 | 0.588 | 0.613
3 | NCI-H1666 | 0.678 | 0.579 | 0.575 | 0.661 | 0.828 | 0.871 | 0.739 | 0.809 | 0.732 | 0.693 | 0.672 | 0.642 | 0.756 | 0.667 | 0.433 | 0.404 | 0.394 | 0.345 | 0.298
4 | NCI-H1734 | 0.295 | 0.356 | 0.366 | 0.333 | 0.722 | 0.694 | 0.661 | 0.678 | 0.692 | 0.359 | 0.398 | 0.349 | 0.355 | 0.353 | 0.508 | 0.418 | 0.475 | 0.429 | 0.426
5 | NCI-H1755 | 0.449 | 0.484 | 0.453 | 0.526 | 0.81 | 0.761 | 0.718 | 0.664 | 0.549 | 0.443 | 0.478 | 0.477 | 0.436 | 0.424 | 0.507 | 0.447 | 0.462 | 0.413 | 0.379
6 | NCI-H1792 | 0.629 | 0.715 | 0.624 | 0.776 | 0.389 | 0.441 | 0.471 | 0.317 | 0.517 | 0.569 | 0.654 | 0.638 | 0.663 | 0.619 | 0.199 | 0.304 | 0.241 | 0.314 | 0.256
7 | NCI-H1793 | 0.311 | 0.355 | 0.297 | 0.397 | – | 0.463 | 0.465 | 0.335 | 0.414 | – | 0.268 | 0.367 | 0.318 | 0.264 | – | 0.294 | 0.286 | 0.292 | 0.309
8 | NCI-H1915 | 0.521 | 0.536 | 0.502 | 0.544 | 0.29 | 0.288 | 0.32 | 0.24 | 0.201 | 0.546 | 0.483 | 0.521 | 0.399 | 0.228 | 1.11 | 0.914 | 0.962 | 0.468 | 0.326
9 | NCI-H1944 | 0.274 | 0.319 | 0.309 | 0.43 | 0.367 | 0.402 | 0.435 | 0.426 | 0.362 | 0.335 | 0.341 | 0.345 | 0.341 | 0.298 | 0.366 | 0.352 | 0.363 | 0.346 | 0.342
10 | NCI-H1975 | 0.547 | 0.728 | 0.548 | 0.52 | 0.339 | 0.31 | 0.371 | 0.373 | 0.413 | 0.575 | 0.608 | 0.564 | 0.606 | 0.485 | 0.272 | 0.308 | 0.311 | 0.302 | 0.311
11 | NCI-H1993 | 0.564 | 0.558 | 0.655 | 0.664 | 0.429 | 0.61 | 0.473 | 0.455 | 0.552 | 0.558 | 0.772 | 0.618 | 0.755 | 0.589 | 0.853 | 0.819 | 0.871 | 0.826 | 0.834
12 | NCI-H2009 | 0.24 | 0.225 | 0.184 | 0.203 | 0.279 | 0.273 | 0.389 | 0.268 | 0.265 | 0.274 | 0.217 | 0.238 | 0.224 | 0.225 | 0.969 | 0.891 | 0.893 | 0.638 | 0.87
13 | NCI-H2023 | 0.35 | 0.469 | 0.359 | 0.4 | 0.568 | 0.635 | 0.468 | 0.497 | 0.518 | 0.407 | 0.377 | 0.377 | 0.379 | 0.346 | 0.254 | 0.225 | 0.248 | 0.207 | 0.265
14 | NCI-H2085 | 0.504 | 0.509 | 0.459 | 0.599 | 0.527 | 0.438 | 0.621 | 0.513 | 0.581 | 0.487 | 0.487 | 0.457 | 0.454 | 0.449 | 0.452 | 0.434 | 0.551 | 0.453 | 0.442
15 | NCI-H2087 | 0.188 | 0.23 | 0.225 | 0.241 | 0.209 | 0.213 | 0.255 | 0.204 | 0.172 | 0.254 | 0.239 | 0.224 | 0.259 | 0.225 | 1.08 | 0.858 | 0.927 | 0.895 | 0.851
16 | NCI-H2126 | 0.331 | 0.334 | 0.36 | 0.379 | 0.561 | 0.588 | 0.624 | 0.555 | 0.623 | 0.347 | 0.332 | 0.349 | 0.355 | 0.345 | 0.475 | 0.554 | 0.489 | 0.511 | 0.457
17 | NCI-H2170 | 0.37 | 0.388 | 0.364 | 0.492 | – | 0.984 | 0.902 | 0.876 | 0.348 | – | 0.398 | 0.368 | 0.375 | 0.264 | – | 0.38 | 0.361 | 0.289 | 0.23
